In patent publication US10689344B2, “Biphenylamide derivative Hsp90 inhibitors” (University of Kansas, priority 2013, dated 2020):
Blank lines part the entries; values can stand above or below the molecule they belong to.

Legend:
[1] = system: SKBr3 (estrogen receptor negative, HER2 over-expressing breast cancer cells); assay: Anti-proliferation assay (MTS/PMS, 72 h), SKBr3; format: cell-based; settings: Homo sapiens
Procedure, shortened: (§1)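 Cells seeded at 2000/well, attached overnight, then exposed to compound at varying concentrations (1% DMSO final) for 72 h at 37° C, 5% CO2. Viability by MTS/PMS, normalised to 1% DMSO controls as 100% proliferation; IC50 from separate triplicate experiments.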

[2] = system: MCF-7 (estrogen receptor positive breast cancer cells); assay: Anti-proliferation assay (MTS/PMS, 72 h), MCF-7; format: cell-based; settings: Homo sapiens
Procedure, shortened: as §1

[3] = system: Hsp90-dependent client proteins (Her2, Raf, Akt) in MCF-7 cells; assay: Western blot analyses of Hsp90-dependent client proteins from MCF-7 cell lysate; format: cell-based; settings: for non-Hsp90-dependent protein actin (western blot): FIG. 1; for Hsp90-dependent client proteins Her2, Raf, and Akt (western blot): FIG. 1, at the same concentration needed to manifest anti-proliferative activity (H 5-fold, L 1/2)
Protocol: (§2) FIG. 1—Western blot analyses of Hsp90-dependent client proteins from MCF-7 breast cancer cell lysate upon treatment with biphenyl derivatives. H represents a concentration equal to 5-fold of the anti-proliferative activity. L represents a concentration ½ of the anti-proliferative activity. Geldanamycin (G, 0.5 μM) and dimethylsulfoxide (D, 100%) were employed as positive and negative controls.
as §2, with “FIGS. 2A & 2B—Western” for “FIG. 1—Western”, “derivatives. Concentrations (in μM) were indicated above each line.” for “derivatives.”, “equal to 0.5-fold” for “½”, “(GDA,” for “(G,”, “(DMSO,” for “(D,”
FIG. 3—Western blot analyses of Hsp90-dependent client proteins from MCF-7 breast cancer cell lysate upon treatment with compound 6l. Concentrations (in μM) were indicated above each line, and geldanamycin (GDA, 0.5 μM) and dimethylsulfoxide (DMSO) were employed as positive and negative controls.
MCF-7 cells were cultured as described above and treated with various concentrations of drug, GDA in DMSO (1% DMSO final concentration), or vehicle (DMSO) for 24 h. Cells were harvested in cold PBS and lysed in RIPA lysis buffer containing 1 mM PMSF, 2 mM sodium orthovanadate, and protease inhibitors on ice for 1 h. Lysates were clarified at 14000 g for 10 min at 4° C. Protein concentrations were determined using the Pierce BCA protein assay kit per the manufacturer's instructions. Equal amounts of protein (20 μg) were electrophoresed under reducing conditions, transferred to a nitrocellulose membrane, and immunoblotted with the corresponding specific antibodies. Membranes were incubated with an appropriate horseradish peroxidase-labeled secondary antibody, developed with a chemiluminescent substrate, and visualized.

SKBr3 cells = settings: cited from earlier work
[4] = system: JMAR (Head and Neck Cancer); assay: Activity of compounds in cancer cell lines, JMAR; format: cell-based; settings: Table 12, JMAR (Head and Neck Cancer)
Source text: Biological activity of these compounds of the present disclosure may be measured using a variety of different methods and techniques. In some embodiments of the present disclosure, the activity is measuring using anti-proliferation assays to determine an IC50 value for particular cell lines such as JMAR and MCF-7. Additionally, in other embodiments, the activity of the instant compounds is measuring using Western blot and measuring protein expression in a variety of different downstream poteins regulated by Hsp90.
(§3) Cells were maintained in a 1:1 mixture of Advanced DMEM/F12 (Gibco) supplemented with non-essential amino acids, L-glutamine (2 mM), streptomycin (500 μg/mL), penicillin (100 units/mL), and 10% FBS. Cells were grown to confluence in a humidified atmosphere (37° C., 5% CO2), seeded (2000/well, 100 μL) in 96-well plates, and allowed to attach overnight. Compound at varying concentrations in DMSO (1% DMSO final concentration) was added, and cells were returned to the incubator for 72 h. At 72 h, the number of viable cells was determined using an MTS/PMS cell proliferation kit (Promega) per the manufacturer's instructions. Cells incubated in 1% DMSO were used at 100% proliferation, and values were adjusted accordingly. IC50 values were calculated from separate experiments performed in triplicate using GraphPad Prism.

SKME128 (Melanoma) = assay: Activity of compounds in cancer cell lines, SKME128; format: cell-based; settings: Table 12, SKME128 (Melanoma)
Protocol: as §3

[5] = SK-BR-3, Table 9, para-meta biphenyl core with prenylated benzylamide
[6] = MCF7, Table 9, para-meta biphenyl core with prenylated benzylamide
[7] = SK-BR-3, Table 1, ortho, meta and para biphenyl cores
[8] = MCF7, Table 1, ortho, meta and para biphenyl cores
[9] = MCF-7 cells, FIG. 1, all concentrations tested

Compound: CC(C)=CCc1cc(C(=O)Nc2cccc(-c3ccc(OC4CCN(C)CC4)cc3)c2)ccc1O [Compound 3a]
IC50 [1, 5]: 2.94 ± 0.11 µM
IC50 [2, 6]: 2.21 ± 0.06 µM
Her2, Raf-1 and p-Akt (western blot, concentration-dependent analysis) ([3]; MCF-7 cell lysates, FIG. 2B): degradation of Her2, Raf-1 and p-Akt

Compound: CO[C@@H]1[C@@H](OC(N)=O)[C@@H](O)[C@H](Oc2ccc3c(O)c(NC(=O)c4ccc(O)c(CC=C(C)C)c4)c(=O)oc3c2C)OC1(C)C [Novobiocin]
efficiency as Hsp90 C-terminal inhibitor (SKBr3 cells): ~700 µM

Compound: CN1CCC(Oc2ccc(-c3cccc(NC(=O)c4ccc(Br)cc4)c3)cc2)CC1 [drawing 161]
IC50 [4]: 0.11 µM

Compound: COc1ccc(C(=O)Nc2ccc(Nc3ccc(OC4CCN(C)CC4)cc3)cc2)cc1 [drawing 162]
IC50 [4]: 0.0097 µM

Compound: CN1CCC(Oc2ccc(-c3ccc(NC(=O)c4ccc(C(C)(C)C)cc4)cc3)cc2)CC1 [drawing 163]
IC50 (SKME128 (Melanoma)): 0.48 µM

Continued, in another order:

IC50 [1, 7]: 3.65 ± 0.14 µM
IC50 [1, 5]: 3.47 ± 0.47 µM
IC50 [2, 8]: 1.25 ± 0.02 µM
IC50 [2, 6]: 2.71 ± 0.4 µM
Compound: COc1cccc(-c2cc(C(=O)Nc3cccc(-c4ccc(OC5CCN(C)CC5)cc4)c3)ccc2OC)c1 [Compound 6a, 3′,6-dimethoxy-N-(4′-((1-methylpiperidin-4-yl)oxy)-[1,1′-biphenyl]-3-yl)-[1,1′-biphenyl]-3-carboxamide]
Hsp90 client proteins Her2 and Raf-1 (western blot) ([3]; MCF-7 cell lysates, FIG. 2A, concentrations that mirror anti-proliferative IC50 values): degraded
non-Hsp90-dependent protein actin (western blot) ([3]; MCF-7 cells): not affected
Hsp90 levels (western blot) [3, 9]: remained constant
Hsp90-dependent client proteins Her2, Raf, and Akt (western blot) ([3]; MCF-7 cells): degradation in a concentration-dependent manner

IC50 ([1]; SK-BR-3, Table 2, para-meta biphenyl core with substituted benzylamide): 1.94 ± 0.11 µM
IC50 ([2]; MCF7, Table 2, para-meta biphenyl core with substituted benzylamide): 0.88 ± 0.07 µM
Compound: CN1CCC(Oc2ccc(-c3cccc(NC(=O)c4ccc(Br)cc4)c3)cc2)CC1 [Compound 6l, 4-Bromo-N-(4′-((1-methylpiperidin-4-yl)oxy)-[1,1′-biphenyl]-3-yl)benzamide]
Hsp90-dependent client proteins Her2, Raf-1 and p-Akt (western blot) ([3]; MCF-7 cell lysates, FIG. 3): degraded in a concentration dependent manner
Hsp90 levels (western blot) ([3]; MCF-7 cell lysates, FIG. 3): remained unchanged
actin levels (western blot) ([3]; MCF-7 cell lysates, FIG. 3): remained constant

IC50 [1, 7]: 0.47 ± 0.06 µM
IC50 ([1]; SK-BR-3, Table 3, substituted para-para biphenyl core): 0.47 ± 0.06 µM
IC50 ([1]; SK-BR-3, Table 5, modified linkers in para-para biphenyl core): 0.47 ± 0.06 µM
IC50 ([1]; SK-BR-3, Table 7, para-para biphenyl core with modified ether groups): 0.47 ± 0.06 µM
IC50 ([1]; SK-BR-3, Table 8, para-para biphenyl core with substituted biphenylamide group): 0.47 ± 0.06 µM
IC50 [2, 8]: 0.71 ± 0.02 µM
IC50 ([2]; MCF7, Table 3, substituted para-para biphenyl core): 0.71 ± 0.02 µM
IC50 ([2]; MCF7, Table 5, modified linkers in para-para biphenyl core): 0.71 ± 0.02 µM
IC50 ([2]; MCF7, Table 7, para-para biphenyl core with modified ether groups): 0.71 ± 0.02 µM
IC50 ([2]; MCF7, Table 8, para-para biphenyl core with substituted biphenylamide group): 0.71 ± 0.02 µM
Compound: COc1cccc(-c2cc(C(=O)Nc3ccc(-c4ccc(OC5CCN(C)CC5)cc4)cc3)ccc2OC)c1 [Compound 9a, 3′,6-dimethoxy-N-(4′-((1-methylpiperidin-4-yl)oxy)-[1,1′-biphenyl]-4-yl)-[1,1′-biphenyl]-3-carboxamide]
non-Hsp90-dependent protein actin (western blot) ([3]; MCF-7 cells): not affected
Hsp90 levels (western blot) [3, 9]: remained constant
Hsp90-dependent client proteins Her2, Raf, and Akt (western blot) ([3]; MCF-7 cells): degradation in a concentration-dependent manner
